Data taken from patent US7250157B2, “Dermatological compositions and methods” (Applied Genetics Incorporated Dermatics, priority 1996, dated 2007).
Several values for one entry are separate records, joined by “and”; a condition that tells them apart may be missing. Identical values can stand only once.

How the values were obtained:
[1] = tested on: Cloudman S91 mouse melanoma cell line; assay: Cell count (proliferation, toxicity) of treated S91 cells; format: cell-based
Summary of the method: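 S91 cells in 2% calf serum exposed to test compounds for 6 days at 37° C; differentiated vs dedifferentiated morphology scored microscopically and trypsin detachment time recorded. Cells counted for proliferation; melanin extracted in 1N NaOH, A475 against melanin standards, expressed as pg melanin/cell.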

[2] = tested on: Tyrosinase in normal human epidermal melanocytes (NHEM); assay: Tyrosinase in NHEM (in situ, cellular, extracellular particulate, media); format: cell-based; settings: for Tyrosinase 200 g Partic, relative to controls (in parentheses) / Tyrosinase 17300 g Partic, relative to controls (in parentheses) / Tyrosinase Cellular, relative to controls (in parentheses) / Tyrosinase In Situ, relative to controls (in parentheses) / Tyrosinase Media, relative to controls (in parentheses): pair of replicates
Procedure: Tyrosinase was measured in normal human epidermal melanocytes (NHEM) using procedures identical to those described for S91 cells (Example 6), […], 1600×g, or 17,300×g for analysis of tyrosinase activity in the extracellular exported melanosomal particulate fraction, and in the resultant supernatant media fraction. In some cases (Table 11), tyrosinase was also measured by an in situ assay wherein radiolabelled tyrosine was added directly to freshly replaced media of NHEM for a period of 24 hrs following a 5 day treatment period (Abdel-Malek, et al., 1992, J. Cell. Physiol. 150:416-425). […] Both 5 mM 5-NBene-2,2-DM and 25 mM 3,3-M-1,2-BD induced more tyrosinase in each of these assays and fractions than did 1,2-PG. IBMX (3-isobutyl-1-methyl-xanthine) provided as a positive control, induced as much tyrosinase as 5 mM 5-NBene-2,2-DM in the in situ assay, but less in cellular, extracellular particulate and media fractions (Table 11).

[3] = tested on: Cloudman S91 mouse melanoma cell line; assay: Melanin content of S91 cells after treatment with test compound; format: cell-based
Summary of the method: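 Mouse S91 melanoma cells seeded at 10^5 cells/35 mm dish in 10% calf serum and cultured with test compound 6 days at 37 °C, 5% CO2. Differentiation scored microscopically, trypsin detachment time recorded, cells counted; melanin measured by absorbance at 475 nm and expressed as pg melanin/cell.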

[4] = tested on: American short-haired guinea pigs; assay: Topical melanogenesis (pigmentation rating) in guinea pigs; format: in vivo, guinea pig; parameters: Pigmentation Rating / Pigmentation Rating Background Corrected: scale not given here; settings: for relative melanogenesis rating (mean ±SE), scale 0-4: 25 μl twice per day for 5 days, rated two weeks after
Summary of the method: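 Agents applied topically to depilated back sites of American short-haired guinea pigs; PG, 2,3-BD and 1,2-cis-CPD at full strength, 3,3-M-1,2-BD at 4M in ethanol. Pigmentation subjectively rated two weeks after cessation of treatment, corrected for control-spot background, normalized to 1M and to 1,2-PG.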

[5] = 5 day treatment, 300 mM 1,2-PG, 25 mM 3,3-M-1,2-BD, 5 mM 5-NBene-2,2-DM, 0.1 mM IBMX
[6] = No Penetration Enhancer, concentrations as E85
[7] = 5 day treatment, concentrations as E130

In the case of `CC(O)CO` (stereo not drawn) [1,2-propanediol, 1,2-Propanediol (Propylene Glycol)], the “Cells (×10^6)” value ([1]; 50 mM) is reported as 0.084 ×10^6, the “Cells (×10^6)” value ([1]; 150 mM) is reported as 0.072 ×10^6 and the “Cells (×10^6)” value ([1]; 1% (136 mM), 6 days) is reported as 0.52 ×10^6. The “Cells (×10^6)” value ([1]; 2% (272 mM), 6 days) was 0.50 ×10^6, the “Cells (×10^6)” value ([1]; 3% (408 mM), 6 days) was 0.20 ×10^6 and the “Cells (×10^6)” value ([1]; 4% (544 mM), 6 days) was 0.10 ×10^6. The “Cells (×10^6)” value ([1]; 5% (680 mM), 6 days) was 0.08 ×10^6, the “effect on cell proliferation” value ([1]; levels used in this experiment (50 and 150 mM)) was “no reduction of cell proliferation” and the “Tyrosinase In Situ” value [2, 5] was 17.2 dpm/hr/10^3 Cells and 16.8 dpm/hr/10^3 Cells. For the same molecule, the “Tyrosinase Cellular” value ([2]; 5 day treatment, concentrations as E130, listed as 1,2-PG) was 10875 dpm/hr/10^3 Cells and 10247 dpm/hr/10^3 Cells, the “Tyrosinase Media” value ([2]; Post 17300 X g, 5 day treatment, concentrations as E130, listed as 1,2-PG) was 2123 dpm/hr/10^3 Cells and 1864 dpm/hr/10^3 Cells and the “Tyrosinase 200 g Partic, relative to controls (in parentheses)” value ([2]; concentrations as E130) was “(1.98X)”. The “Tyrosinase 17300 g Partic, relative to controls (in parentheses)” value ([2]; concentrations as E130) was “(1.50X)”, the “Tyrosinase Cellular, relative to controls (in parentheses)” value ([2]; concentrations as E130) was “(1.03) X” and the “Tyrosinase In Situ, relative to controls (in parentheses)” value ([2]; concentrations as E130) was “(1.07X)”. For the same molecule, the “Tyrosinase Media, relative to controls (in parentheses)” value ([2]; concentrations as E130) was “(1.28X)”, the “Concentration Required for ≧2-fold Melanin Induction in S91 Cells” value [3] was 150 mM and the “pg Melanin/Cell” value ([3]; 50 mM) was 15.6 pg Melanin/Cell. The “ug Melanin” value ([3]; 50 mM) was 1.31 µg, the “pg Melanin/Cell” value ([3]; 150 mM) was 24.0 pg Melanin/Cell and the “ug Melanin” value ([3]; 150 mM) was 1.73 µg. For the same molecule, the “pg Melanin/Cell” value ([3]; 1% (136 mM), 6 days) was 9.4 pg Melanin/Cell, the “ug Melanin” value ([3]; 1% (136 mM), 6 days) was 4.88 µg and the “pg Melanin/Cell” value ([3]; 2% (272 mM), 6 days) was 12.5 pg Melanin/Cell. The “ug Melanin” value ([3]; 2% (272 mM), 6 days) was 6.24 µg, the “pg Melanin/Cell” value ([3]; 3% (408 mM), 6 days) was 20.2 pg Melanin/Cell and the “ug Melanin” value ([3]; 3% (408 mM), 6 days) was 4.03 µg. The “pg Melanin/Cell” value ([3]; 4% (544 mM), 6 days) was 40.1 pg Melanin/Cell, the “ug Melanin” value ([3]; 4% (544 mM), 6 days) was 4.01 µg and the “pg Melanin/Cell” value ([3]; 5% (680 mM), 6 days) was 28.9 pg Melanin/Cell. For the same molecule, the “ug Melanin” value ([3]; 5% (680 mM), 6 days) was 2.31 µg, the “Pigmentation Rating Normalized to 1,2-PG” value [4, 6] was 1.0 ± 0.1 and the “Pigmentation Rating Normalized to 1M” value [4, 6] was 0.015 ± 0.002. For the same molecule, the “Pigmentation Rating Background Corrected” value ([4]; No Penetration Enhancer, corrected for Nair control, concentrations as E85) was 0.21 ± 0.03, the “Pigmentation Rating” value ([4]; No Penetration Enhancer, sites c and d, 13.61M 1,2-PG, 11.0M 2,3-M-2,3-BD, 11.3M 2-M-1,3-PG, 8.7M 1,2-cs-CPD, 4.0M 3,3-M-1,2-BD) was 0.29 ± 0.09 and the “melanogenesis in guinea pigs (in words)” value ([4]; same relative body position) was “significant melanogenesis relative to depilitory treated controls”. For the same molecule, the “relative melanogenesis rating (mean ±SE), scale 0-4” value ([4]; site a (head), PG 13.6M, 2,3-BD 10.95M, 1,2-cs-CPD 10.7M full strength, 3,3-M-1,2-BD 4M in ethanol) was 1.04 ± 0.21, the “relative melanogenesis rating (mean ±SE), scale 0-4” value ([4]; site b, full strength solutions, listed as PG) was 0.50 ± 0.25 and 0.83 ± 0.17 and the “relative melanogenesis rating (mean ±SE), scale 0-4” value ([4]; site c, full strength, 3,3-M-1,2-BD 4M in ethanol) was 0.25 ± 0.09^1. For the same molecule, the “relative melanogenesis rating (mean ±SE), scale 0-4” value ([4]; site d (tail), full strength solutions) was 0.33 ± 0.16^1 and the “pigmentation response versus control (Nair or 2% 2P treated) spots” value ([4]; sites towards tail, 13.61M 1,2-PG, 10.6M 1,2-PG/2% 2P, 11M 2,3-dimethyl-2,3-butanediol) was “not significantly different from control”.

In the case of `OCC1(CO)CC2C=CC1C2` (stereo not drawn) [5-NBene-2,2-DM, 5-norbornene-2,2-dimethanol], the “Cells (×10^6)” value ([1]; 1 mM, 4 days, X ± SE, n = 3) is reported as 0.423 ± 0.052 ×10^6, the “Cells (×10^6)” value ([1]; 2.5 mM, 4 days, X ± SE, n = 3) is reported as 0.269 ± 0.040 ×10^6 and the “Cells (×10^6)” value ([1]; 5 mM, 4 days, X ± SE, n = 3) is reported as 0.090 ± 0.011 ×10^6. The “toxicity to S91 cells” value ([1]; concentrations that induce much higher levels of tyrosinase) was “nontoxic”, the “Tyrosinase In Situ” value [2, 5] was 24.5 dpm/hr/10^3 Cells and 25.4 dpm/hr/10^3 Cells and the “Tyrosinase 200 g Partic” value [2, 7] was 6447 dpm/hr/10^3 Cells and 6291 dpm/hr/10^3 Cells. The “Tyrosinase Cellular” value [2, 7] was 13838 dpm/hr/10^3 Cells and 14716 dpm/hr/10^3 Cells, the “Tyrosinase Cellular” value ([2]; Black-Neonatal-NHEM, 1 mM) was 10679 dpm/hr/10^3 cells and the “Tyrosinase Cellular relative to Control” value ([2]; Black-Neonatal-NHEM, 1 mM) was 1.08 X. For the same molecule, the “Tyrosinase In Situ” value ([2]; Black-Neonatal-NHEM, 1 mM) was 13.9 dpm/hr/10^3 cells, the “Tyrosinase In Situ relative to Control” value ([2]; Black-Neonatal-NHEM, 1 mM) was 1.11 X and the “Tyrosinase Media relative to Control” value ([2]; Black-Neonatal-NHEM, 1 mM) was 2.41 X. The “Tyrosinase Media” value ([2]; Black-Neonatal-NHEM, 1 mM, media from 1 day treatment period) was 26.8 dpm/hr/10^3 cells, the “Tyrosinase Cellular” value ([2]; Black-Neonatal-NHEM, 5 mM) was 15398 dpm/hr/10^3 cells and the “Tyrosinase Cellular relative to Control” value ([2]; Black-Neonatal-NHEM, 5 mM) was 1.56 X. The “Tyrosinase In Situ” value ([2]; Black-Neonatal-NHEM, 5 mM) was 14.1 dpm/hr/10^3 cells, the “Tyrosinase In Situ relative to Control” value ([2]; Black-Neonatal-NHEM, 5 mM) was 1.13 X and the “Tyrosinase Media relative to Control” value ([2]; Black-Neonatal-NHEM, 5 mM) was 2.99 X. The “Tyrosinase Media” value ([2]; Black-Neonatal-NHEM, 5 mM, media from 1 day treatment period) was 33.2 dpm/hr/10^3 cells, the “Tyrosinase 17300 g Partic” value ([2]; Post 200 X g, 5 day treatment, concentrations as E130) was 493 dpm/hr/10^3 Cells and 473 dpm/hr/10^3 Cells and the “Tyrosinase Media” value ([2]; Post 17300 X g, 5 day treatment, concentrations as E130) was 4164 dpm/hr/10^3 Cells and 4639 dpm/hr/10^3 Cells. The “Tyrosinase Cellular” value ([2]; White-Adult-NHEM, 1 mM) was 12740 dpm/hr/10^3 cells, the “Tyrosinase Cellular relative to Control” value ([2]; White-Adult-NHEM, 1 mM) was 0.91 X and the “Tyrosinase In Situ” value ([2]; White-Adult-NHEM, 1 mM) was 6.27 dpm/hr/10^3 cells. For the same molecule, the “Tyrosinase In Situ relative to Control” value ([2]; White-Adult-NHEM, 1 mM) was 1.13 X, the “Tyrosinase Media relative to Control” value ([2]; White-Adult-NHEM, 1 mM) was 0.82 X and the “Tyrosinase Media” value ([2]; White-Adult-NHEM, 1 mM, media from 1 day treatment period) was 29.9 dpm/hr/10^3 cells. For the same molecule, the “Tyrosinase Cellular” value ([2]; White-Adult-NHEM, 5 mM) was 18467 dpm/hr/10^3 cells, the “Tyrosinase Cellular relative to Control” value ([2]; White-Adult-NHEM, 5 mM) was 1.32 X and the “Tyrosinase In Situ” value ([2]; White-Adult-NHEM, 5 mM) was 5.81 dpm/hr/10^3 cells. The “Tyrosinase In Situ relative to Control” value ([2]; White-Adult-NHEM, 5 mM) was 1.04 X, the “Tyrosinase Media relative to Control” value ([2]; White-Adult-NHEM, 5 mM) was 1.46 X and the “Tyrosinase Media” value ([2]; White-Adult-NHEM, 5 mM, media from 1 day treatment period) was 53.1 dpm/hr/10^3 cells. For the same molecule, the “Tyrosinase 200 g Partic, relative to controls (in parentheses)” value ([2]; concentrations as E130) was “(18.6X)”, the “Tyrosinase 17300 g Partic, relative to controls (in parentheses)” value ([2]; concentrations as E130) was “(4.22X)” and the “Tyrosinase Cellular, relative to controls (in parentheses)” value ([2]; concentrations as E130) was “(1.40X)”. The “Tyrosinase In Situ, relative to controls (in parentheses)” value ([2]; concentrations as E130) was “(1.57X)”, the “Tyrosinase Media, relative to controls (in parentheses)” value ([2]; concentrations as E130) was “(2.83X)” and the “Concentration Required for ≧2-fold Melanin Induction in S91 Cells” value [3] was 5 mM. The “Pigmentation Ratings (X ± SE; n = 6; scale 0 to +4)” value ([4]; spot a (anterior), 8.7M 1,2-cis-CPD in 20% ETOH, 1M 5-NBene-2,2-DM in 8.5 M propylene glycol, 2% 2-pyrrolidone, 20% ETOH, 1M 2,3-cs/ex PD in 50% ETOH) was 1.75 ± 0.43, the “Pigmentation Ratings (X ± SE; n = 6; scale 0 to +4)” value ([4]; spot b, formulations as E220) was 1.25 ± 0.21 and the “Pigmentation Ratings (X ± SE; n = 6; scale 0 to +4)” value ([4]; spot c, formulations as E220) was 0.83 ± 0.15. The “Pigmentation Ratings (X ± SE; n = 6; scale 0 to +4)” value ([4]; spot d (posterior), formulations as E220) was 0.29 ± 0.08.
